Data as given in ChEMBL document CHEMBL1201862, “PubChem BioAssay data set” (2004).
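How tested: cells in 96-well plates exposed to compound for 48 hours at five concentrations. GI50 is the concentration that inhibits growth by half.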 Activity calls are given as the source filed them. Cut-off read from the data, not from the text of the source: active = GI50 up to about 1.1 µM and inactive = higher.

Legend:
Experiment in all cases: NCI anticancer screen, dose series, 48 h
DLD-1 = tested on: DLD-1
M19-MEL = tested on: M19-MEL
KM-20L2 = tested on: KM-20L2
DMS-273 = tested on: DMS-273
LXFL 529 = tested on: LXFL 529
XF498 = tested on: XF498
SNB-78 = tested on: SNB-78
RXF 631 = tested on: RXF 631
HOP-18 = tested on: HOP-18

| Structure (SMILES) | GI50 (DLD-1) | GI50 (M19-MEL) | GI50 (KM-20L2) | GI50 (DMS-273) | GI50 (LXFL 529) | GI50 (XF498) | GI50 (SNB-78) | GI50 (RXF 631) | GI50 (HOP-18) |
| --- | --- | --- | --- | --- | --- | --- | --- | --- | --- |
| CN1C(=O)CN2C(Cl)(Cl)C2(c2ccccc2)c2cc(Cl)ccc21 (stereo not drawn) | 93.5 µM (inactive) | > 100 µM (inactive) | > 100 µM (inactive) | 87.7 µM (inactive) | > 100 µM (inactive) |  |  |  |  |
| CC12CC3(C)CC(C)(C1)CC(N=[N+]=[N-])(C2)C3 | > 100 µM (inactive) | > 100 µM (inactive) |  | > 100 µM (inactive) | > 100 µM (inactive) | > 100 µM (inactive) | > 100 µM (inactive) | > 100 µM (inactive) | > 100 µM (inactive) |
| S=c1sc2cscc2s1 | 21 µM (inactive) | 18.5 µM (inactive) | 27 µM (inactive) | 31.1 µM (inactive) | 20.2 µM (inactive) | 23.3 µM (inactive) | 30.5 µM (inactive) | 24.9 µM (inactive) | 20.7 µM (inactive) |
| CC(=O)OCC1OC(n2cc(F)c(=O)[nH]c2=O)C(N)C(OC(C)=O)C1OC(C)=O (stereo not drawn) | > 100 µM (inactive) | > 100 µM (inactive) | > 100 µM (inactive) | > 100 µM (inactive) |  | > 100 µM (inactive) | > 100 µM (inactive) |  | > 100 µM (inactive) |
| O=C1CSc2sc(=S)sc2S1 | > 100 µM (inactive) | > 100 µM (inactive) | > 100 µM (inactive) | 95.9 µM (inactive) |  | > 100 µM (inactive) | > 63.7 µM (inactive) |  | > 84.3 µM (inactive) |
| Cc1[nH]c(=O)[nH]c(=O)c1/C=C/C(=O)NC(CO)C[S+]([O-])C[S+](C)[O-] (stereo not drawn) | 20.4 µM (inactive) | 15 µM (inactive) | 36.9 µM (inactive) | 21 µM (inactive) |  | 1.74 µM (inactive) | 11.7 µM (inactive) |  | 59.3 µM (inactive) |
| O=C1Nc2ccccc2Nc2ccncc21 | > 100 µM (inactive) | > 100 µM (inactive) | > 100 µM (inactive) | > 100 µM (inactive) |  |  | > 100 µM (inactive) |  | > 100 µM (inactive) |
| COc1ccc(CC/N=C2\CCC(C(=O)NCCc3ccc(OC)c(OC)c3)N2)cc1OC (stereo not drawn) | > 100 µM (inactive) |  | > 100 µM (inactive) | > 100 µM (inactive) | > 100 µM (inactive) | > 100 µM (inactive) | > 100 µM (inactive) | > 100 µM (inactive) | > 100 µM (inactive) |
| O=C1C(c2ccc(C3=[N+]([O-])c4cc([N+](=O)[O-])ccc4C3=O)cc2)=[N+]([O-])c2cc([N+](=O)[O-])ccc21 | > 10 µM (inactive) | > 10 µM (inactive) | > 10 µM (inactive) | > 10 µM (inactive) | > 10 µM (inactive) | > 10 µM (inactive) | 8.91 µM (inactive) |  | > 100 µM (inactive) |
| O=C(Nc1nc2ncn(CCNCc3ccccc3)c2c(=O)[nH]1)c1ccccc1 | > 100 µM (inactive) | > 100 µM (inactive) | > 100 µM (inactive) | > 100 µM (inactive) | > 100 µM (inactive) |  | > 100 µM (inactive) | 41.5 µM (inactive) | > 100 µM (inactive) |
| COc1ccc(C2C(N)=NCC2c2ccccn2)cc1 (stereo not drawn) | > 100 µM (inactive) | > 100 µM (inactive) | > 100 µM (inactive) |  | > 100 µM (inactive) | > 100 µM (inactive) | > 100 µM (inactive) | > 100 µM (inactive) | 30.1 µM (inactive) |
| COc1ccc(C2=C(Cl)c3cc(OC)c(OC)cc3C2Cl)cc1 (stereo not drawn) |  | 18.2 µM (inactive) | 15.9 µM (inactive) | 17.2 µM (inactive) | 13.2 µM (inactive) | < 0.01 µM (active) | 17.9 µM (inactive) |  | 20.3 µM (inactive) |
